What was measured:
[1] = target: T1, human α1G T-type channels (Homo sapiens, UniProt O43497); assay: T-type calcium channel block, whole cell patch clamp (α1G); assay type: cell-based; conditions: HEK cells stably expressing human α1G; mainly non-inactivated protocol; values above 10 μM represented as 10 μM, values below 0.30 μM represented as 0.30 μM
T1 construct: expressed in transfected cells; host or cells: HEK 293
Procedure: (§1) T-type calcium channel blocking activity was assayed in human embryonic kidney cells, HEK 293, stably transfected with the T-type calcium channel subunits. Briefly, cells were cultured in Dulbecco's modified eagle medium (DMEM) supplemented with 10% fetal bovine serum, 200 U/ml penicillin and 0.2 mg/ml streptomycin at 37° C. with 5% CO2. At 85% confluency cells were split with 0.25% trypsin/1 mM EDTA and plated at 10% confluency on glass coverslips. At 12 hours the medium was replaced and the cells stably transfected using a standard calcium phosphate protocol and the appropriate calcium channel cDNA's. Fresh DMEM was supplied and the cells transferred to 28° C./5% CO2. Cells were incubated for 1 to 2 days prior to whole cell recording.
(§2) Standard patch-clamp techniques were employed to identify blockers of T-type currents. Briefly, previously described HEK cell lines stably expressing human α1G, α1H and α1I T-type channels were used for all the recordings (passage #: 4-20, 37° C., 5% CO2). Whole cell patch clamp experiments were performed using an Axopatch 200B amplifier (Axon Instruments, Burlingame, Calif.) linked to a personal computer equipped with pCLAMP software. Data were analyzed using Clampfit (Axon Instruments) and SigmaPlot 4.0 (Jandel Scientific). To obtain T-type currents, plastic dishes containing semi-confluent cells were positioned on the stage of a ZEISS AXIOVERT S100 microscope after replacing the culture medium with external solution (see below). Whole-cell patches were obtained using pipettes (borosilicate glass with filament, O.D.: 1.5 mm, I.D.: 0.86 mm, 10 cm length), fabricated on a SUTTER P-97 puller with resistance values of ˜5 MΩ (see below for internal solution).
(§3) In the non-inactivating protocol, the holding potential is set at −110 mV and with a pre-pulse at −100 mV for 1 second prior to the test pulse at −40 mV for 50 ms. In the inactivation protocol, the pre-pulse is at approximately −85 mV for 1 second, which inactivates about 15% of the T-type channels.
(§4) Test compounds were dissolved in external solution, 0.1-0.01% DMSO. After 10 min rest, they were applied by gravity close to the cell using a WPI microfil tubing. The “non-inactivated” pre-pulse was used to examine the resting block of a compound. The “inactivated” protocol was employed to study voltage-dependent block. However, the initial data shown below were mainly obtained using the non-inactivated protocol only. . IC50 values are shown for various compounds of the invention in Table 4 for the drug of interest. Values are shown in μM and values above 10 μM are simply represented as 10 μM.

[2] = target: T2, human α1H T-type channels (Homo sapiens, UniProt O95180); assay: T-type calcium channel block, whole cell patch clamp (α1H); assay type: cell-based; conditions: HEK cells stably expressing human α1H; mainly non-inactivated protocol; values above 10 μM represented as 10 μM
T2 construct: expressed in transfected cells; host or cells: HEK 293
Procedure: as §1, §2, §3, §4

T1 sequence (O43497 whole entry): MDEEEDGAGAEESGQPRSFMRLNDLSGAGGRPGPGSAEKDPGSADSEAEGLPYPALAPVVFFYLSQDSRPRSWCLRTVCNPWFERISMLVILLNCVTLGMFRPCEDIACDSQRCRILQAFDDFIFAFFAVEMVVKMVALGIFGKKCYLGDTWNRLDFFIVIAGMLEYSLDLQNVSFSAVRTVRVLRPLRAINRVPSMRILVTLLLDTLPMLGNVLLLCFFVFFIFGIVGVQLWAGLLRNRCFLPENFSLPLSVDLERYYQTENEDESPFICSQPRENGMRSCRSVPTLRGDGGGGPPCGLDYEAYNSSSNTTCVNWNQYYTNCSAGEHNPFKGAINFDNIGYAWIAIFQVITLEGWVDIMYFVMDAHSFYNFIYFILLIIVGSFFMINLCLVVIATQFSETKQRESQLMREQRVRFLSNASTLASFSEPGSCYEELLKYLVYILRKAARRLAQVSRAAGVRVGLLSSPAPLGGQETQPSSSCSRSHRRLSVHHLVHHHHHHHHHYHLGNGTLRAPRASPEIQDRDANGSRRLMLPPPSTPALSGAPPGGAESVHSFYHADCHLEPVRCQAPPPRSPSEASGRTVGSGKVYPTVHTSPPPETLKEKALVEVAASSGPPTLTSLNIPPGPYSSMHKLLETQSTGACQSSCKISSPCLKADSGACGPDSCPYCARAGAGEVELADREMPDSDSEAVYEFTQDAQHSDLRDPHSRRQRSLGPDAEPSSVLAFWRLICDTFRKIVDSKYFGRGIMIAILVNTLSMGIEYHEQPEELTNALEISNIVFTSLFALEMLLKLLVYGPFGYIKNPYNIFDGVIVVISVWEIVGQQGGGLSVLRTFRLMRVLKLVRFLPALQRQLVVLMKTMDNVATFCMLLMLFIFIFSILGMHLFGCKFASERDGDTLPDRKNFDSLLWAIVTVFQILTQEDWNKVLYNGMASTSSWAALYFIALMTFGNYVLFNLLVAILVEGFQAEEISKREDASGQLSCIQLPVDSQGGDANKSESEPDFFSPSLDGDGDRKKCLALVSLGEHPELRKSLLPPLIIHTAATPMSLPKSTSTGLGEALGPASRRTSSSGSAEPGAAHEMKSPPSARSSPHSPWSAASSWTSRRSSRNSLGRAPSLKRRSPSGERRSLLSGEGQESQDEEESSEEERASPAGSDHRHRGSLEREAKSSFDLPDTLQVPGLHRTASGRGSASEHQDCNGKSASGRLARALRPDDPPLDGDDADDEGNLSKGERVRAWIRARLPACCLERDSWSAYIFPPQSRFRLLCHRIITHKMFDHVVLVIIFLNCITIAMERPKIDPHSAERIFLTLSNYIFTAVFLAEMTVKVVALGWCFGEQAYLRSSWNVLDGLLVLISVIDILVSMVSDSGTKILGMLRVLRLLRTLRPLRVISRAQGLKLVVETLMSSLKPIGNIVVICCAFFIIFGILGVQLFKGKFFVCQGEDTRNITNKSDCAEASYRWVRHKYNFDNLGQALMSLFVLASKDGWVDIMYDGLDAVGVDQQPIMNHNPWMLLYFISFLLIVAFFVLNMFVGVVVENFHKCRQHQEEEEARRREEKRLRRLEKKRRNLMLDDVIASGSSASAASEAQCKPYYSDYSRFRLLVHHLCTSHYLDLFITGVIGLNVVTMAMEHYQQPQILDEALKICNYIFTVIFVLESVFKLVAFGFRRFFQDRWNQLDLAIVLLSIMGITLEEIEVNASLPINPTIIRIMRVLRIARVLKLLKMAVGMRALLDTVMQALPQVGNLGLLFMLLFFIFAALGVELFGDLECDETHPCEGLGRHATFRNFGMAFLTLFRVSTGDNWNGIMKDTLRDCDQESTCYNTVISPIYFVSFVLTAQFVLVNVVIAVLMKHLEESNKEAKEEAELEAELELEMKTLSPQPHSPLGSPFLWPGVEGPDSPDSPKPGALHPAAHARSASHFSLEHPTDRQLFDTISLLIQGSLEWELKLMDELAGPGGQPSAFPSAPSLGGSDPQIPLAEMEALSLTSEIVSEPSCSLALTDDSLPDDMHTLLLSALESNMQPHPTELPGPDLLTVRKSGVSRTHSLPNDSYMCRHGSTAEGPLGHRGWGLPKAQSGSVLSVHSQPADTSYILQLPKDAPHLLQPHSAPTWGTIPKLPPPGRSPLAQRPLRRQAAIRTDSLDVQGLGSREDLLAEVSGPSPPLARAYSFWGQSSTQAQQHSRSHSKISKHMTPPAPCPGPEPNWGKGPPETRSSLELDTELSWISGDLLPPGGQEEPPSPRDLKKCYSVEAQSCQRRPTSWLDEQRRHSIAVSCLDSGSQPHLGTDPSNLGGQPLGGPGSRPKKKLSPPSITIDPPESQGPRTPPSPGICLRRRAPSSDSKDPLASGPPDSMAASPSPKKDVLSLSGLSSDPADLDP
T2 sequence (O95180 whole entry): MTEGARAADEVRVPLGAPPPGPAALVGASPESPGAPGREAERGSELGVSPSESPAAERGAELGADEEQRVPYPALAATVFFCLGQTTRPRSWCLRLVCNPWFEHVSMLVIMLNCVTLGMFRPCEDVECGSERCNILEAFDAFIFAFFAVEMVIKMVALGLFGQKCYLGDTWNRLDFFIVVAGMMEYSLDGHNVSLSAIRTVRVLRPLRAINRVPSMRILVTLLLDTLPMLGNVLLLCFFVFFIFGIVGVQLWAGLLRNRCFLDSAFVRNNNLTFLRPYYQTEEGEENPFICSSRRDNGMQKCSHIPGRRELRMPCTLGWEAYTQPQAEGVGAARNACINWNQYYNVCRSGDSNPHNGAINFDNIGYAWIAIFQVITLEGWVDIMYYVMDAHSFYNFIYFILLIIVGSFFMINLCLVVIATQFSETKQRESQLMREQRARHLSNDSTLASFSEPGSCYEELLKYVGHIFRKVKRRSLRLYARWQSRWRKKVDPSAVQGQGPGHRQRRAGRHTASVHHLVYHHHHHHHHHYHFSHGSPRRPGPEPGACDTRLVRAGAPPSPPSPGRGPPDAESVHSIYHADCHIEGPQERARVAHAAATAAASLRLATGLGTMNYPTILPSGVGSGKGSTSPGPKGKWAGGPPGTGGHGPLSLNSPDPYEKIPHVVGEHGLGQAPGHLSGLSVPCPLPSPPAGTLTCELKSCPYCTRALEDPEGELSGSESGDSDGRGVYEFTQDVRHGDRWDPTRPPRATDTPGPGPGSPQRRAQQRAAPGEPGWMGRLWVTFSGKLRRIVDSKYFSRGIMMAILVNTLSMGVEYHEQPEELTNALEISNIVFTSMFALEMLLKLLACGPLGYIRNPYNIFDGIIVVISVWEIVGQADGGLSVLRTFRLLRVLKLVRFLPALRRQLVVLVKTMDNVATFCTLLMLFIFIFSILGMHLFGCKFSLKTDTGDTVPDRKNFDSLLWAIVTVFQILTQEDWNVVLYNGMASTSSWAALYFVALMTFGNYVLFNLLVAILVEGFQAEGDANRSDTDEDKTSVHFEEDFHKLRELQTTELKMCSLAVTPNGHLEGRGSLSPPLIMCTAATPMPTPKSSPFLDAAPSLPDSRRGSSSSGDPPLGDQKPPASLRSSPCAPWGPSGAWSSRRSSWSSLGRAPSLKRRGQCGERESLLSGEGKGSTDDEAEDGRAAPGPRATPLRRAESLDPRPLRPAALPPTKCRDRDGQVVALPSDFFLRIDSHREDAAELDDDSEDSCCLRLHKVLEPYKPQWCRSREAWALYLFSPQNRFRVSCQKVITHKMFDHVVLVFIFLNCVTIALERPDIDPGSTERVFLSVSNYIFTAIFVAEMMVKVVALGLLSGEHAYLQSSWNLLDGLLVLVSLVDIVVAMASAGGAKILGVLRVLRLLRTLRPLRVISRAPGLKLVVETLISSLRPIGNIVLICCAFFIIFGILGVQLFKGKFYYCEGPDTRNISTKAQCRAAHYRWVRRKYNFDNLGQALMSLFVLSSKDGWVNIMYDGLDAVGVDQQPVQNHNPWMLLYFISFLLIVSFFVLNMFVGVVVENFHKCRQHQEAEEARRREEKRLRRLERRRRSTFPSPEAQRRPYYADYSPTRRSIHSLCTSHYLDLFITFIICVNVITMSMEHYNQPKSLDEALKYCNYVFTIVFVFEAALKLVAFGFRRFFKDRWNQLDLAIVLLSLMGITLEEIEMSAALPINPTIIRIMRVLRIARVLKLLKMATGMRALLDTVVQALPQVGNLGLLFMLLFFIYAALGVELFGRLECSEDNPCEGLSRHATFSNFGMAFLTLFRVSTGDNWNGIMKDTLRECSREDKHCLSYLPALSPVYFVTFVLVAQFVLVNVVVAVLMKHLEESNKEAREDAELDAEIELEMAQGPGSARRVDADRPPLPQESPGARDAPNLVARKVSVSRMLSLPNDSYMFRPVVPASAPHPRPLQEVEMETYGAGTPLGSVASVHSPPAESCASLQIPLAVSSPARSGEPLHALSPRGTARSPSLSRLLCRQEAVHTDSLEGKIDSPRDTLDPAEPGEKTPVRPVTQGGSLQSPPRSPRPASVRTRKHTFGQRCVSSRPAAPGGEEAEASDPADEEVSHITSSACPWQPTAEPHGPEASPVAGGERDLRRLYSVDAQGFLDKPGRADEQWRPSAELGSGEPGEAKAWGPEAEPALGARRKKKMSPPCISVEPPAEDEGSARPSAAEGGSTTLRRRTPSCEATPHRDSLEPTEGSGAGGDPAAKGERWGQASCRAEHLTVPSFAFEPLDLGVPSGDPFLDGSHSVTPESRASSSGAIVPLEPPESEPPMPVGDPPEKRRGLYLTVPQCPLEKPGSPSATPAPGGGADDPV

Row | IC50 [1] | IC50 [2] | SMILES
1 | ≤ 300 nM | 2450 nM | O=C(NC[C@H]1CC[C@H](NCc2ccccc2O)CC1)c1cc(C(F)(F)F)cc(C(F)(F)F)c1 [Compound 25, N-((trans-4-(2-hydroxybenzylamino)cyclohexyl)methyl)-3,5-bis(trifluoromethyl)benzamide]
2 | 1970 nM | 9760 nM | O=C(NC[C@H]1CC[C@H](NCc2cccnc2F)CC1)c1cc(C(F)(F)F)cc(C(F)(F)F)c1 [Compound 27, N-((trans-4-((2-fluoropyridin-3-yl)methylamino)cyclohexyl)methyl)-3,5-bis(trifluoromethyl)benzamide]
3 | ≤ 300 nM | 800 nM | COc1ccccc1CN[C@H]1CC[C@H](CNC(=O)c2cc(C(F)(F)F)cc(C(F)(F)F)c2)CC1 [Compound 29, N-((trans-4-(2-methoxybenzylamino)cyclohexyl)methyl)-3,5-bis(trifluoromethyl)benzamide]
4 | 1060 nM | 5830 nM | COc1cccnc1CN[C@H]1CC[C@H](CNC(=O)c2cc(C(F)(F)F)cc(C(F)(F)F)c2)CC1 [Compound 30, N-((trans-4-((3-methoxypyridin-2-yl)methylamino)cyclohexyl)methyl)-3,5-bis(trifluoromethyl)benzamide]
5 | ≤ 300 nM | 2470 nM | O=C(NC[C@H]1CC[C@H](NCc2cccc(F)c2O)CC1)c1cc(C(F)(F)F)cc(C(F)(F)F)c1 [Compound 31, N-((trans-4-(3-fluoro-2-hydroxybenzylamino)cyclohexyl)methyl)-3,5-bis(trifluoromethyl)benzamide]
6 | 330 nM | 3450 nM | O=C(NC[C@H]1CC[C@H](NCc2c(O)cccc2F)CC1)c1cc(C(F)(F)F)cc(C(F)(F)F)c1 [Compound 32, N-((trans-4-(2-fluoro-6-hydroxybenzylamino)cyclohexyl)methyl)-3,5-bis(trifluoromethyl)benzamide]
7 | ≤ 300 nM | 710 nM | COc1cccc(O)c1CN[C@H]1CC[C@H](CNC(=O)c2cc(C(F)(F)F)cc(C(F)(F)F)c2)CC1 [Compound 33, N-((trans-4-(2-hydroxy-6-methoxybenzylamino)cyclohexyl)methyl)-3,5-bis(trifluoromethyl)benzamide]
8 | ≤ 300 nM | 1970 nM | O=C(NC[C@H]1CC[C@H](NCc2c(F)cccc2Cl)CC1)c1cc(C(F)(F)F)cc(C(F)(F)F)c1 [Compound 34, N-((trans-4-(2-chloro-6-fluorobenzylamino)cyclohexyl)methyl)-3,5-bis(trifluoromethyl)benzamide]
9 | 390 nM | 770 nM | COc1ccc(CN[C@H]2CC[C@H](CNC(=O)c3cc(C(F)(F)F)cc(C(F)(F)F)c3)CC2)c(OC)c1 [Compound 35, N-((trans-4-(2,4-dimethoxybenzylamino)cyclohexyl)methyl)-3,5-bis(trifluoromethyl)benzamide]
10 | 1330 nM | 790 nM | O=C(NC[C@H]1CC[C@@H](NCC(=O)N2CCCC2)CC1)c1cc(C(F)(F)F)cc(C(F)(F)F)c1 [Compound 39, N-((cis-4-(2-oxo-2-(pyrrolidin-1-yl)ethylamino)cyclohexyl)methyl)-3,5-bis(trifluoromethyl)benzamide]
11 | ≤ 300 nM | 190 nM | CC(C)(C)NC(=O)CN[C@H]1CC[C@@H](CNC(=O)c2cc(C(F)(F)F)cc(C(F)(F)F)c2)CC1 [Compound 40, N-((cis-4-(2-(tert-butylamino)-2-oxoethylamino)cyclohexyl)methyl)-3,5-bis(trifluoromethyl)benzamide]
12 | ≤ 300 nM | 330 nM | CCN(CC)C(=O)CN[C@H]1CC[C@@H](CNC(=O)c2cc(C(F)(F)F)cc(C(F)(F)F)c2)CC1 [Compound 41, N-((cis-4-(2-(diethylamino)-2-oxoethylamino)cyclohexyl)methyl)-3,5-bis(trifluoromethyl)benzamide]
13 | ≤ 300 nM | 120 nM | CCC(CC)NC(=O)CN[C@H]1CC[C@@H](CNC(=O)c2cc(C(F)(F)F)cc(C(F)(F)F)c2)CC1 [Compound 42, N-((cis-4-(2-oxo-2-(pentan-3-ylamino)ethylamino)cyclohexyl)methyl)-3,5-bis(trifluoromethyl)benzamide]
14 | 910 nM | 450 nM | O=C(CN[C@H]1CC[C@@H](CNC(=O)c2cc(C(F)(F)F)cc(C(F)(F)F)c2)CC1)NCC(F)(F)F [Compound 43, N-((cis-4-(2-oxo-2-(2,2,2-trifluoroethylamino)ethylamino)cyclohexyl)methyl)-3,5-bis(trifluoromethyl)benzamide]
15 | ≤ 300 nM | 260 nM | CN(C(=O)CN[C@H]1CC[C@@H](CNC(=O)c2cc(C(F)(F)F)cc(C(F)(F)F)c2)CC1)C1CCCC1 [Compound 44, N-((cis-4-(2-(cyclopentyl(methyl)amino)-2-oxoethylamino)cyclohexyl)methyl)-3,5-bis(trifluoromethyl)benzamide]
16 | ≤ 300 nM | 450 nM | O=C(CN[C@H]1CC[C@@H](CNC(=O)c2cc(C(F)(F)F)cc(C(F)(F)F)c2)CC1)NN1CCCCC1 [Compound 45, N-((cis-4-(2-oxo-2-(piperidin-1-ylamino)ethylamino)cyclohexyl)methyl)-3,5-bis(trifluoromethyl)benzamide]
17 | ≤ 300 nM | 10 nM | C#CC(CC)(CC)NC(=O)CN[C@H]1CC[C@@H](CNC(=O)c2cc(C(F)(F)F)cc(C(F)(F)F)c2)CC1 [Compound 47, N-((cis-4-(2-(3-ethylpent-1-yn-3-ylamino)-2-oxoethylamino)cyclohexyl)methyl)-3,5-bis(trifluoromethyl)benzamide]
18 | 350 nM | 250 nM | O=C(CN[C@H]1CC[C@@H](CNC(=O)c2cc(C(F)(F)F)cc(C(F)(F)F)c2)CC1)NCC1CCCCC1 [Compound 48, N-((cis-4-(2-(cyclohexylmethylamino)-2-oxoethylamine)cyclohexyl)methyl)-3,5-bis(trifluoromethyl)benzamide]
19 | 4280 nM | 2470 nM | COC1CCC(N(C)C(=O)CN[C@H]2CC[C@@H](CNC(=O)c3cc(C(F)(F)F)cc(C(F)(F)F)c3)CC2)CC1 (stereo partly drawn) [Compound 50, N-((cis-4-(2-((4-methoxycyclohexyl)(methyl)amino)-2-oxoethylamino)cyclohexyl)methyl)-3,5-bis(trifluoromethyl)benzamide]
20 | 1150 nM | 820 nM | CC(C)(C)c1nc(CN[C@H]2CC[C@@H](CNC(=O)c3cc(C(F)(F)F)cc(C(F)(F)F)c3)CC2)no1 [Compound 51, N-((cis-4-((5-tert-butyl-1,2,4-oxadiazol-3-yl)methylamino)cyclohexyl)methyl)-3,5-bis(trifluoromethyl)benzamide]
21 | 1240 nM | 1330 nM | Cc1cc(CN[C@H]2CC[C@@H](CNC(=O)c3cc(C(F)(F)F)cc(C(F)(F)F)c3)CC2)no1 [Compound 52, N-((cis-4-((5-methylisoxazol-3-yl)methylamino)cyclohexyl)methyl)-3,5-bis(trifluoromethyl)benzamide]
22 | ≤ 300 nM | 210 nM | CCC1CCCN1C(=O)CN[C@H]1CC[C@@H](CNC(=O)c2cc(C(F)(F)F)cc(C(F)(F)F)c2)CC1 (stereo partly drawn) [Compound 54, N-((cis-4-(2-(2-ethylpyrrolidin-1-yl)-2-oxoethylamino)cyclohexyl)methyl)-3,5-bis(trifluoromethyl)benzamide]

— patent US20090298834A1, “4-(AMINOMETHYL)CYCLOHEXANAMINE DERIVATIVES AS CALCIUM CHANNEL BLOCKERS” (priority 2008, published 2009)
